Assay results published in patent US6461997B1, “Triazole sulfones having herbicidal activity” (Monsanto Technology LLC, priority 1999, dated 2002).

Test system: PANMI (wild proso millet)
Experiment: Pre-emergence herbicidal activity, warm season
Type: in vivo, Panicum miliaceum
Conditions: GR80 = lowest tested rate (300, 100, 30, 10 g/ha) with 80% or greater inhibition; approx. 14 days after treating; 30/21° C.
In short: (§1)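 Activity is expressed as the rate giving 80% inhibition, with 300, 100, 30 and 10 g/ha typically tested. An asterisk marks activity short of 80% at the top rate. Warm-season grasses were held at 30/21 °C; cool-season blackgrass and wild buckwheat at 18/13 °C; scoring at about 14 days.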

SMILES	Pre-emergence activity (GR80) PANMI
CCN(CC)C(=O)n1cnc(S(=O)(=O)C(F)(F)C(=O)c2ccccc2)n1 [Example 6]	300 g/ha

Test system: BRAPP (broadleaf signalgrass)
Experiment: Pre-emergence herbicidal activity, warm season
Type: in vivo, Brachiaria platyphylla
Conditions: GR80 = lowest tested rate (300, 100, 30, 10 g/ha) with 80% or greater inhibition; approx. 14 days after treating; 30/21° C.
In short: (§2)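 GR80 values derive from percent inhibition relative to untreated plants, read roughly 14 days after sowing and pre-emergence soil-surface treatment (compound in 50:50 acetone/water; rates typically 10, 30, 100, 300 g/ha). Warm-season weeds grew at 30/21° C day/night, cool-season ones at 18/13° C; an asterisk marks activity without reaching 80% at the highest rate.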

SMILES	Pre-emergence activity (GR80) BRAPP
CCN(CC)C(=O)n1cnc(S(=O)(=O)C(F)(F)C(=O)c2ccccc2)n1 [Example 6]	* (activity observed, at least at highest rate, but <80% inhibition)

Test system: DIGSA (large crabgrass)
Experiment: Pre-emergence herbicidal activity, warm season
Type: in vivo, Digitaria sanguinalis
Conditions: GR80 = lowest tested rate (300, 100, 30, 10 g/ha) with 80% or greater inhibition; approx. 14 days after treating; 30/21° C.
In short: as §1

SMILES	Pre-emergence activity (GR80) DIGSA
CCN(CC)C(=O)n1cnc(S(=O)(=O)C(F)(F)C(=O)c2ccccc2)n1 [Example 6]	300 g/ha

Test system: SETVI (green foxtail)
Experiment: Pre-emergence herbicidal activity, cool season
Type: in vivo, Setaria viridis
Conditions: GR80 = lowest tested rate (300, 100, 30, 10 g/ha) with 80% or greater inhibition; approx. 14 days after treating; 18/13° C.
In short: as §2

SMILES	Pre-emergence activity (GR80) SETVI
CCN(CC)C(=O)n1cnc(S(=O)(=O)C(F)(F)C(=O)c2ccccc2)n1 [Example 6]	300 g/ha

Test system: AGSST (creeping bentgrass)
Experiment: Pre-emergence herbicidal activity, cool season
Type: in vivo, Agrostis stolonifera
Conditions: GR80 = lowest tested rate (300, 100, 30, 10 g/ha) with 80% or greater inhibition; approx. 14 days after treating; 18/13° C.
In short: as §2

SMILES	Pre-emergence activity (GR80) AGSST
CCN(CC)C(=O)n1cnc(S(=O)(=O)C(F)(F)C(=O)c2ccccc2)n1 [Example 6]	100 g/ha

Test system: DIGSA (large crabgrass)
Experiment: Pre-plant incorporated (PPI) herbicidal activity, warm season
Type: in vivo, Digitaria sanguinalis
Conditions: pre-plant incorporated; lowest tested rate with 80% or greater inhibition; about 14 days
Protocol: (§3) In another set of tests, the pre-plant incorporated (PPI) activity of compounds of this invention was evaluated on the same species as for the pre-emergence tests described above. In the PPI tests the following procedure, designed to simulate PPI application, was used.
(§4) A pre-prepared topsoil mixture (described above) was placed in a pot and compacted to a depth of 1.0 to 1.25 cm from the top of the pot. Seeds of each of several monocotyledonous and dicotyledonous annual plant species were placed on top of the soil. A sufficient quantity of soil to cover the seeds and level fill the pot was weighed into an open container. A known amount of the test compound was dissolved or suspended in an organic solvent and applied by spraying to this cover soil. The cover soil was thoroughly mixed to distribute the test compound throughout the cover soil, and was then applied as a cover layer over the seeds. Untreated soil was used as a cover layer for control pots. After treatment the plants were placed in a greenhouse where they received 0.64 cm of overhead irrigation. All subsequent watering consisted of a light overhead mist and/or subirrigation as needed for germination and growth. Tables 9 and 10 below relate to warm season plant species which were placed after pre-emergence treatment in a greenhouse with a 30/21° C. day/night temperature regime. Tables 11 and 12 below relates to cool season plant species placed after pre-emergence treatment in a greenhouse or growth chamber with an 18/13° C. day/night temperature regime. Only the compounds of Examples 1, 6, 8, 11, 13 and 15-20 were included in PPI tests.
(§5) Approximately 14 days after planting and treating, the plants were observed and herbicidal efficacy recorded as percent inhibition by comparison with untreated plants.

SMILES	PPI activity GR80, DIGSA
CCN(CC)C(=O)n1cnc(S(=O)(=O)C(F)(F)C(=O)c2ccccc2)n1 [Example 6]	100 g/ha

Test system: GALAP (catchweed bedstraw)
Experiment: Pre-plant incorporated (PPI) herbicidal activity, cool season
Type: in vivo, Galium aparine
Conditions: pre-plant incorporated; lowest tested rate with 80% or greater inhibition; about 14 days
Protocol: as §3, §4, §5

SMILES	PPI activity GR80, GALAP
CCN(CC)C(=O)n1cnc(S(=O)(=O)C(F)(F)C(=O)c2ccccc2)n1 [Example 6]	100 g/ha

Test system: LOLMG (annual ryegrass)
Experiment: as above
Type: in vivo, Lolium multiflorum
Conditions: pre-plant incorporated; lowest tested rate with 80% or greater inhibition; about 14 days
Protocol: as §3, §4, §5

SMILES	PPI activity GR80, LOLMG
CCN(CC)C(=O)n1cnc(S(=O)(=O)C(F)(F)C(=O)c2ccccc2)n1 [Example 6]	300 g/ha

Test system: AEGCY (jointed goatgrass)
Experiment: as above
Type: in vivo, Aegilops cylindrica
Conditions: pre-plant incorporated; lowest tested rate with 80% or greater inhibition; about 14 days
Protocol: as §3, §4, §5

SMILES	PPI activity GR80, AEGCY
CCN(CC)C(=O)n1cnc(S(=O)(=O)C(F)(F)C(=O)c2ccccc2)n1 [Example 6]	[empty]

Test system: AGRRE (quackgrass (seedling))
Experiment: as above
Type: in vivo, Elymus repens
Conditions: pre-plant incorporated; lowest tested rate with 80% or greater inhibition; about 14 days
Protocol: as §3, §4, §5

SMILES	PPI activity GR80, AGRRE
CCN(CC)C(=O)n1cnc(S(=O)(=O)C(F)(F)C(=O)c2ccccc2)n1 [Example 6]	300 g/ha
